Measurements reported in patent publication US5411965A, “Use of delta opioid receptor antagonists to treat cocaine abuse” (Arizona Board of Regents, priority 1993, dated 1995).
Entries after “also recorded” stand apart in the source; their conditions may differ. Like-named read-outs stand apart in the source and are kept apart here.

Tests used:
[1] = Conditioned place preference (CPP) test; format: in vivo, male Lewis rats; conditions: for conditioned place preference, cocaine alone: cocaine 15 mg/kg s.c. plus placebo
From the text: Testing associated with conditioning place preference (CPP) procedures involves some rather straightforward assumptions and observations.
To test NTI's ability to block cocaine's ability to establish a CPP, male, Lewis rats were subjected to standard procedures associated with testing for place preferences. The rats were first habituated to being handled.
Then, the rats were put into an alley having two distinctive sides with the barrier separating the two sides not in place, i.e., a baseline preference for the two sides was measured. After baseline was determined, the conditioning procedures began.
The conditioning procedures were the same for all rats, except that there were four different regimens of drug administration, one regimen for each of four different groups of rats (12 rats a group). The conditioning procedure involved one set of kind of injections before a rat was placed in one side of the alley and another set of kind of injections before being placed in the other side.
The group of rats that received the procedures usually used to show a cocaine-produced CPP, received cocaine-injections (plus a placebo injection) before being put into the putative side of conditioning. The dose of cocaine was 15 mg/kg given subcutaneously, a relatively large dose of cocaine. On the next day, this group received placebo injections before being put into the alternative side. These procedures were repeated throughout conditioning.
There was also a group that received placebos (vehicles for both cocaine and NTI) before being placed in either side of the chamber. This is a typical control group and can be used to determine if merely the procedures themselves of handling the rats leads rats to change their preference for a side of the alley.
There was yet another control group. This group received NTI before being placed in the side of putative conditioning and placebos at other times. […] So, the basic conditions for testing a NTI's effects on cocaine's ability to establish a CPP indicative of cocaine's positivity were set.
FIG. 2 depicts the mean percent change from baseline for each of the experimental groups. The group represented by the open bar (far left bar) received only injections of placebos before being put into either side of the apparatus, i.e., this is a placebo control group. […] The striped bar depicts the mean scores of the group that received NTI before being placed into the side of conditioning and saline before being placed into the other side. […] The solid black bar depicts the scores of the group getting cocaine before being put into the side of conditioning (saline or placebo before being put into the other side). […] The cross-hatched bar depicts the mean score of the group treated with cocaine but also receiving NTI.

[2] = format: in vivo, rats; conditions: for pressing for brain stimulation, cocaine alone: cocaine (5.0 mg/kg in Example 5); for pressing for brain stimulation, NTI plus MDMA: in words
From the text: When rats are fixed with chronically indwelling bipolar electrodes for electrical stimulation of the medial forebrain bundle, they will press levers for brief durations of stimulation. The higher the intensity of stimulation, the greater the pressing. […] These relationships plus extant theory provide the rationale for using pressing for brain stimulation as a means of assessing the reinforcing effects of drugs and assessing which drugs might affect another drug's reinforcing effects.
The particulars of the procedures used herein are briefly summarized. Further information is in Reid (cited above) and Reid et al. (Life Sciences, 52, PL67-71 (1993)). Rats were fixed with chronically indwelling bipolar electrodes. Using standard stereotaxic methods, which includes full anesthesia, the tips of the electrode were aimed to stimulate the medial forebrain bundle as it traverses the lateral hypothalamus. With the skull held in a stereotaxic instrument so that a plane between bregma and lamba was perpendicular to the shaft of the electrode, the following stereotaxic coordinates were used: 3.5 mm posterior to brema, 1.6 mm lateral to the midline, and 8.6 mm below the surface of the skull.
The apparatus of these tests was a Skinner box (24×30 ×38 cm) equipped with a lever (2.5×2 cm). Each box was fixed with electrical leads and a slip-ring apparatus that allowed the rat to be connected to the electrical stimulator for intracranial stimulation, but allowed the rat to move freely in the box.
Upon full recovery from surgery, rats were trained to press a lever in the Skinner box for electrial stimulation of the brain. The electrical stimulation was 60 Hz sine waves of 0.3 sec. The maximum intensity used was of 50 microAmps. Each lever press delivered one 0.3-sec of brain stimulation.
Just after rats learned to press the lever, the intensity of the brain stimulation was varied. Three intensities were chosen. The lowest intensity was one that was barely sufficient to sustain lever pressing. The highest intensity sustained high rates of pressing, but not the highest rates that a rat can achieve. The medium intensity was about midway between the lowest and the highest. Once a set of intensities were established for each rat, those intensities remained fixed throughout the balance of testing. […] Each rat was under a daily regimen. They were allowed to press for each of three intensities of brain stimulation for 10 minutes. […] They were allowed to press the lever under this daily regimen under level-pressing rates became stable. Then, drugs (or placebos) were administered.
The methods of Example 5 were nearly the same as those of Example 4. Rats were fixed, using standard procedures, with chronically indwelling electrodes for stimulation of the medial forebrain bundle. Subsequent to recovery from surgery, they were trained to press for brain stimulation. After each learned to press, they were put on a daily regimen. That daily regimen involved pressing for 5 min at a high intensity of brain stimulation, followed by 5-minute sessions with medium, low, low, medium and then high intensity. Intensities were set for each rat so that pressing rate for the low intensity was rather slow (the low intensity being near lower threshold for maintaining pressing), pressing for the high intensity was at a high rate, and pressing for the medium intensity was between the rate for low and high intensity. Pressing at each intensity was averaged for an index of rat's responsiveness at that intensity.

[3] = format: in vivo, rats; conditions: cocaine 0.4 mg/kg a lever press; one-hour session
From the text: When rats are fixed with chronically indwelling intravenous catheters, drugs can be administered as the rats are walking around. These same rats can be put into a box equipped with a lever, the depression of which actuates a pump that can deliver drug through the catheter, i.e., the rats can be put into a Skinner box with drug administration a continguency of lever-pressing. […] See J. R. Weeks et al., "Screening for Drug Reinforcement Using Intravenous Self-Administration in the Rat," Bozarth, cited above, at pages 35-44.
Rats were fixed with chronically indwelling catheters for the delivery of doses of cocaine directly into their veins. Subsequently, the rats were trained to press a lever for small bolus injections of cocaine (0.4 mg/kg of cocaine a lever press with an injection volume of 10 microliters of drug plus saline solution, the drug carrier). Rats were given one-hour opportunities daily to press for cocaine.

[4] = drug alone; literature; cited from earlier work
dopamine transporter = conditions: in words; cited from earlier work
delta opioid receptor = test: In vivo antagonism of DSLET antinociception (writhing); set-up: species or system mice; conditions: 20 mg/kg s.c.; in words
Protocol: When mice are injected with an irritant, they respond by a characteristic writhing that can be inhibited by analgesics. Consequently, the writhing response can be used to index the effects of particular opioids.

mu opioid receptor = conditions: agonist morphine in GPI; antagonist 100 or 200 nM, 15 min; read-out: Ke; cited from earlier work

| Structure (SMILES) | conditioned place preference, cocaine alone [1] | conditioned place preference, cocaine alone ([1]; listed as cocaine) | pressing for brain stimulation, cocaine alone [2] | pressing for brain stimulation, cocaine alone ([2]; listed as cocaine) | cocaine self-administration, average presses without NTI [3] | conditioned place preference [4] | dopamine transporter binding / dopamine reuptake inhibition (dopamine transporter) | blocking of writhing inhibition due to DSLET (delta opioid receptor) | conditioned place preference, NTI alone ([1]; rat, in vivo) | conditioned place preference, NTI plus cocaine ([1]; rat, in vivo) | mean presses at High intensity, MDMA plus Naltrindole ([2]; High intensity, combination with MDMA, six rats) | mean presses at Low intensity, MDMA plus Naltrindole ([2]; Low intensity, combination with MDMA, six rats) | mean presses at Medium intensity, MDMA plus Naltrindole ([2]; Medium intensity, combination with MDMA, six rats) | pressing for brain stimulation, NTI alone ([2]; NTI by itself, listed as NTI) | pressing for brain stimulation, NTI plus MDMA ([2]; listed as NTI) | pressing for brain stimulation, NTI plus MDMA ([2]; listed as naltrindole) | pressing for brain stimulation, NTI plus amphetamine ([2]; rat, in vivo) | pressing for brain stimulation, NTI plus cocaine ([2]; rat, in vivo) | pressing for brain stimulation, NTI plus morphine ([2]; rat, in vivo) | Kb (mu opioid receptor) |
| --- | --- | --- | --- | --- | --- | --- | --- | --- | --- | --- | --- | --- | --- | --- | --- | --- | --- | --- | --- | --- |
| COC(=O)[C@H]1[C@@H](OC(=O)c2ccccc2)C[C@@H]2CC[C@H]1N2C [Cocaine, methyl 3-(benzoyloxy)-8-methyl-8-azabicyclo[3.2.1]octane-2-carboxylate] | established a positive CPP; also recorded: produced a significant (asterisk) positive place preference | statistically significantly different than its baseline score and is significantly larger than the placebo-control group's scores | leads to a marked increase in pressing compared to pressing under the influence of placebo | large increase in pressing; also recorded: increased pressing for stimulation | about 11 presses a session | establishes a CPP | binds to the dopamine transporter and inhibits dopamine reuptake |  |  |  |  |  |  |  |  |  |  |  |  |  |
| Oc1ccc2c3c1O[C@H]1c4[nH]c5ccccc5c4C[C@@]4(O)[C@@H](C2)N(CC2CC2)CC[C@]314 [Compound 1, 17-(cyclopropylmethyl)-6,7-dehydro-3,14β-dihydroxy-4,5α-epoxy-6,7-2',3'-indolmorphinan] |  |  |  |  |  |  |  | effectively blocked the writhing inhibition due to DSLET | did not significantly change from baseline to testing; also recorded: not statistically different at testing from baseline; also recorded: did not by itself establish a place preference; also recorded: did not produce place preferences or place aversions | significantly different from the cocaine group's scores but not different from the other groups' scores; also recorded: blocked cocaine's ability to produce a positive CPP; also recorded: antagonized by naltrindole | 825 presses per ten minutes | 98 presses per ten minutes | 342 presses per ten minutes | no demonstratable effect; also recorded: did not, by itself, reduce pressing for brain stimulation | reduced the increased pressing associated with the administration of MDMA | pressing at the low intensity is reduced considerably and there is no reliable difference in pressing under the combination of drugs compared to placebo | pressed somewhat less under the influence of NTI (10 mg/kg) plus amphetamine than they did under the influence of placebos; also recorded: NTI can modulate amphetamine's as well as cocaine's reinforcing effects; also recorded: reduced pressing similar to rate under placebo | NTI blocked cocaine's effects; also recorded: blocked the effects of cocaine; also recorded: NTI blocked cocaine's ability to be reinforcing; also recorded: reduced rate of pressing under the influence of cocaine to that similar to rate of pressing under placebo alone; also recorded: extraordinarily effective in blocking cocaine's salient effects | hardly affected the effects of morphine; also recorded: negligible; also recorded: did not markedly or significantly affect rate of pressing | 29.4 nM |
